BindingDB's records for doi:10.1016/S0960-894X(01)81219-1 (1993)

Assay: The inhibitory constant was evaluated against Endothelin A receptor in rabbit renal artery tissue

Which IC50 does the source give for `CC[C@H](C)[C@H](NC(=O)[C@H](CC(=O)O)NC(=O)[C@H](CCCN)NC(=O)[C@@H](Cc1c[nH]c2ccccc12)NC(C)=O)C(=O)N[C@H](C(=O)N[C@@H](Cc1c[nH]c2ccccc12)C(=O)O)[C@@H](C)CC` [(S)-3-{(S)-2-[(R)-2-Acetylamino-3-(1H-indol-3-yl)-propionylamino]-5-amino-pentanoylamino}-N-((1S,2R)-1-{(1S,2R)-1-[(S)-1-carboxy-2-(1H-indol-3-yl)-ethylcarbamoyl]-2-methyl-butylcarbamoyl}-2-methyl-butyl)-succinamic acid] here?
The IC50 was 130 nM.
